pEC50: −log10 of the molar value. Several values for one entry are separate records, joined by “and”; a condition that tells them apart may be missing. Identical values can stand only once. Counter-ions that a name gives are not always drawn. Like-named read-outs stand apart in the source and are kept apart here.
Tests used:
[1] = in vitro; settings: human
[2] = system: SARS-CoV-2; experiment: microbe, parasite or virus in culture; format: cell-based; settings: for pEC50: read-out: HeLa-ACE2 TOA CoV-2 EC50 GeoMean; for SARS-CoV-2 % infected cells: 10 µM after 1 h infection
[3] = system: HeLa-ACE2 cells; experiment: cells; settings: Homo sapiens
[4] = system: HEK293T; settings: human, 72 h
[5] = system: SARS-CoV-2; experiment: microbe, parasite or virus in culture; format: cell-based; settings: for Emax: Severe acute respiratory syndrome coronavirus 2, HeLa-ACE2, 24 h, read-out: HeLa-ACE2 CoV-2 Sinf Average; for pEC50: read-out: HeLa-ACE2 CoV-2 EC50 GeoMean; for HeLa-ACE2 SI: selectivity index, uninfected HeLa-ACE2 CC50 / SARS-CoV-2 EC50
[6] = system: Calu-3 cells
[7] = Uninfected HeLa-ACE2 24 h live/dead cytotoxicity counter screen; format: cell-based, human; settings: human, uninfected HeLa-ACE2 cells, read-out: HeLa-ACE2 uninfected cytotoxicity CC50 GeoMean
[8] = system: HeLa-ACE2 cells; experiment: as above; format: cell-based, human
[9] = in vitro; settings: human, Calu-3 uninfected cytotoxicity CC50 GeoMean
[10] = system: HepG2; settings: human, 72 h
[11] = in vitro; settings: human; remark: listed apart in the source
[12] = system: SARS-CoV-2; experiment: microbe, parasite or virus in culture; format: cell-based; settings: for pEC50: Severe acute respiratory syndrome coronavirus 2, Calu-3, read-out: Calu-3 CoV-2 EC50 GeoMean
[13] = system: HeLa-ACE2 cells; experiment: cells; format: cell-based, human; settings: Homo sapiens, HeLa-ACE2; read-out: HeLa-ACE2 TOA cell count EC50 GeoMean
[14] = system: Calu-3 cells; experiment: cells; settings: Homo sapiens
[15] = system: COVID-19; settings: ref [9]; cited from earlier work
[16] = HEK293T 72 h CellTiter-Glo cytotoxicity; settings: human, HEK293T cells
[17] = system: HEK293T; experiment: HEK293T 72 h CellTiter-Glo cytotoxicity; settings: 72 h
[18] = system: HeLa-ACE2 cells; experiment: Total cell count in the HeLa-ACE2 TOA (time of addition) assay; format: cell-based, human; settings: Homo sapiens, HeLa-ACE2; read-out: HeLa-ACE2 TOA cell count EC50 GeoMean
[19] = system: SARS-CoV-2; format: cell-based; settings: combination with remdesivir
[20] = Uninfected Calu-3 48 h Cell-Titer Glo cytotoxicity counter screen; settings: human, uninfected Calu-3 cells, Calu-3 uninfected cytotoxicity CC50 GeoMean
[21] = system: Calu-3 cells; experiment: as above; settings: human, uninfected Calu-3 cells, 48 h
[22] = HepG2 72 h CellTiter-Glo cytotoxicity; settings: human, HepG2 cells
[23] = system: HepG2; experiment: HepG2 72 h CellTiter-Glo cytotoxicity; settings: 72 h
[24] = Severe acute respiratory syndrome coronavirus 2, HeLa-ACE2, detail block
[25] = curve plateau at infinite concentration
[26] = Severe acute respiratory syndrome coronavirus 2, HeLa-ACE2, detail column

Oc1ccc(Nc2ccnc3cc(Cl)ccc23)cc1CN1CCCC1 [Amopyroquine]
CC50 at 72 h [1]: 6.39 µM | Emax ([2]; Severe acute respiratory syndrome coronavirus 2, HeLa-ACE2, 10 h, curve plateau at infinite concentration, read-out: HeLa-ACE2 TOA CoV-2 Sinf Average): 100% | pEC50 [2, 24]: < 5.02 | TOA:HeLa-ACE2 EC50 Ratio ([2]; TOA EC50 / HeLa-ACE2 SARS-CoV-2 EC50): 10.603 | pEC50 ([3]; HeLa-ACE2, read-out: HeLa-ACE2 cell count EC50 GeoMean, detail block): < 5.02 | HEK293T 72-hour cytotoxicty Sinf Average [4]: -103% | Emax [5, 25]: 100% | pEC50 [5, 24]: 6.04 | HeLa-ACE2 SI [5]: 19.02 | uninfected Calu-3 CC50 [6]: 18.669 ×÷ 1.171 (n=3) μM | Calu-3 uninfected cytotoxicity Sinf Average ([6]; human, 48 h): -96% | CC50 at 24 h ([7]; detail block): 17.2 µM | HeLa-ACE2 uninfected cytotoxicity Sinf Average [8, 25]: -100% | CC50 at 48 h [9]: 18.7 µM | HepG2 72-hour cytotoxicity Sinf Average [10]: -102% | CC50 at 72 h [11]: 6.31 µM | Emax ([12]; Severe acute respiratory syndrome coronavirus 2, Calu-3, 48 h, curve plateau at infinite concentration, read-out: Calu-3 CoV-2 Sinf Average): 100% | pEC50 ([12]; detail block): < 5.00 | Calu-3 SI ([12]; selectivity index, uninfected Calu-3 CC50 / Calu-3 SARS-CoV-2 EC50): 1.87 | pEC50 [13]: < 5.02 | pEC50 ([14]; Calu-3, read-out: Calu-3 cell count EC50 GeoMean, detail block): < 5.00

interferon
mortality of hospitalized COVID-19 patients [15]: failed to reduce mortality

CCN(CCO)CCCC(C)Nc1ccnc2cc(Cl)ccc12 (centres unmarked) [Hydroxychloroquine sulfate]
CC50 at 72 h [16]: 10.1 µM | HEK293T 72-hour cytotoxicty Sinf Average [17]: -101% | TOA:HeLa-ACE2 EC50 Ratio [2]: 20.968 | SARS-CoV-2 % infected cells ([2]; 4:00:00 post infection): 0.3802% and 0.1721% and 0.1129% | SARS-CoV-2 % infected cells ([2]; 5:00:00): 0.24% and 0.7413% and 0.2751% | SARS-CoV-2 % infected cells ([2]; 6:00:00): 11.7654% and 10.6398% and 10.3646% | SARS-CoV-2 % infected cells ([2]; 7:00:00): 25.8166% and 25.8417% and 29.0337% | SARS-CoV-2 % infected cells ([2]; 8:00:00): 31.116% and 29.6088% and 30.8104% | SARS-CoV-2 % infected cells ([2]; 10:00:00): 33.0276% and 34.8116% and 35.0891% | SARS-CoV-2 % infected cells ([2]; 11:00:00): 35.46% and 36.5434% and 36.8817% | SARS-CoV-2 % infected cells ([2]; 12:00:00): 33.0004% and 35.9224% and 38.4986% | SARS-CoV-2 % infected cells ([2]; 24:00:00): 45.3401% and 44.0948% and 41.0805% | activity when treatment was initiated at 1 hpi ([2]; HeLa-ACE2, 10 µM): Loss of activity | pEC50 [2, 26]: < 5.02 | Emax ([3]; HeLa-ACE2, 24 h, read-out: HeLa-ACE2 cell count Sinf Average): -47% | pEC50 ([3]; HeLa-ACE2, read-out: HeLa-ACE2 cell count EC50 GeoMean): < 5.23 | pEC50 [18]: < 5.02 | Emax [5]: 100% | pEC50 [5, 26]: 6.34 | HeLa-ACE2 SI [5]: > 40.04 | mortality of hospitalized COVID-19 patients [15]: failed to reduce mortality | cytotox ([6]; human): 13.7874 | CC50 at 24 h [7]: > 18.3 µM | HeLa-ACE2 uninfected cytotoxicity Sinf Average ([8]; human, uninfected HeLa-ACE2 cells, 24 h): -99% | HeLa-ACE2 synergy score with remdesivi [19]: -1.572 δ | CC50 at 48 h [20]: > 24.7 µM | Calu-3 uninfected cytotoxicity Sinf Average [21]: -100% | pEC50 [12]: < 5.00 | pEC50 ([14]; Calu-3, read-out: Calu-3 cell count EC50 GeoMean): < 5.00 | CC50 at 72 h [22]: 3.62 µM | HepG2 72-hour cytotoxicity Sinf Average [23]: -100%
